Biological target: H1047R PIK3CA enzyme (Homo sapiens, UniProt P42336, H1047R)
Assay: ADP-Glo Biochemical PIK3CA Kinase Assay

H1047R PIK3CA enzyme, sequence (P42336 whole entry H1047R): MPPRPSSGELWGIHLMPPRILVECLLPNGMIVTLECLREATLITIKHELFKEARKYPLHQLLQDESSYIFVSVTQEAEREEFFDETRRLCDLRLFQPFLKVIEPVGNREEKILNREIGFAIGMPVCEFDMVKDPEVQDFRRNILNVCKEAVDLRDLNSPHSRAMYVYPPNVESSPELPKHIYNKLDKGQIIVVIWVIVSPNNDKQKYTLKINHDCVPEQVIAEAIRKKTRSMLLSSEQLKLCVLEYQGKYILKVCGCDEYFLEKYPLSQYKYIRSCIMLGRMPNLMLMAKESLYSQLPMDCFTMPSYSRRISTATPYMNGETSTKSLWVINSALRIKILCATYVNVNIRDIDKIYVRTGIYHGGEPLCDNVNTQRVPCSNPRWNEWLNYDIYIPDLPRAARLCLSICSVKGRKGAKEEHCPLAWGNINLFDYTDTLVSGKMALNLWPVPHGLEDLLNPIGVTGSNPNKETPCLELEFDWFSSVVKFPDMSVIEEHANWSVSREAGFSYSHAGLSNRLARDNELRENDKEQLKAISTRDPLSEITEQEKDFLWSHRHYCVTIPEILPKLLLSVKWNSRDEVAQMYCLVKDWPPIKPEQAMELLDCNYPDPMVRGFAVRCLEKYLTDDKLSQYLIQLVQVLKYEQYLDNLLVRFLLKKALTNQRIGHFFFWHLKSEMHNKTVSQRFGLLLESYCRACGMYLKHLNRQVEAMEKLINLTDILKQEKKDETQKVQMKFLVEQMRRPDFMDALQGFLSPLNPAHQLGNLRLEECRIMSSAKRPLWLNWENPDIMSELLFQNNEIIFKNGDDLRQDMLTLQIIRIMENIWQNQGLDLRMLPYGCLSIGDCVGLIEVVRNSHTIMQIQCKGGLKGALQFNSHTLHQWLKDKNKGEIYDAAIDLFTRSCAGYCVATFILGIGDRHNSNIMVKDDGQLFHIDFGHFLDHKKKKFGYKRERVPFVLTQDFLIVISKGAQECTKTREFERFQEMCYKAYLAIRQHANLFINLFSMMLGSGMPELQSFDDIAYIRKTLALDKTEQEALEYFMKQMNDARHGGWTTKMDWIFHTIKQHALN
H1047R PIK3CA enzyme, sequence (P27986 whole entry partner): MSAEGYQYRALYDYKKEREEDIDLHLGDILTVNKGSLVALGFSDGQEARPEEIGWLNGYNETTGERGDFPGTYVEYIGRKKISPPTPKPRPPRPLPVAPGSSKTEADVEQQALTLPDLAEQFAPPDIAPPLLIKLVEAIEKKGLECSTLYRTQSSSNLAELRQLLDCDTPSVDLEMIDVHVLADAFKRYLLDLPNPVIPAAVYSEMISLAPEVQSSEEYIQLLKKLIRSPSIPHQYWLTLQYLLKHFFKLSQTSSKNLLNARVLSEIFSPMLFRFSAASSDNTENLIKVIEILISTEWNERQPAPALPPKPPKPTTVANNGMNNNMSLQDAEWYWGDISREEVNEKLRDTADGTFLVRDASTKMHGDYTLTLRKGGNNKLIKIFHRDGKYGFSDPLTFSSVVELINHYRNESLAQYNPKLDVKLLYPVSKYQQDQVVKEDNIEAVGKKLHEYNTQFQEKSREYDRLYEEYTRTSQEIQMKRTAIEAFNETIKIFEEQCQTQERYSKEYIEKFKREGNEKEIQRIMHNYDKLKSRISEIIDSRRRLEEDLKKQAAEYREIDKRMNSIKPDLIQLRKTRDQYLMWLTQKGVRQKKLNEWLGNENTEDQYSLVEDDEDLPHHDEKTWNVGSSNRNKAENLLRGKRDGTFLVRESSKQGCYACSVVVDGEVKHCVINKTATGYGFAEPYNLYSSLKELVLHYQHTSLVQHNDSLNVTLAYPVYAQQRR

Structure (SMILES) | IC50 [µM]
Nc1cnc2ccc(-c3cc(NC(=O)c4cc(F)cc(C(F)(F)F)c4)c4c(c3)C(=O)NC4c3cc(F)ccc3Cl)cn12 (stereo not shown) [Compound I-1409] | ≤ 0.1
O=C(Cc1n[nH]c2ccccc12)Nc1cc(Br)cc2c1C(c1cc(F)ccc1Cl)NC2=O (stereo not shown) [Compound I-955] | 10 to 100
COc1cncc(-c2cc(NC(=O)c3cc(F)cc(C(F)(F)F)c3)c3c(c2)C(=O)NC3c2cc(F)ccc2Cl)c1 (stereo not shown) [Compound I-854] | ≤ 0.1
COc1ncc(-c2cc(NC(=O)c3cc(F)cc(C(F)(F)F)c3)c3c(c2)C(=O)NC3c2cc(F)ccc2Cl)cn1 (stereo not shown) [Compound I-782] | ≤ 0.1
CNc1cc(C(F)(F)F)cc(C(=O)Nc2cccc3c2C(c2cc(F)ccc2Cl)NC3=O)n1 (stereo not shown) [Compound I-839] | 10 to 100
CN1CC(c2cc(NC(=O)c3cc(F)cc(C(F)(F)F)c3)c3c(c2)C(=O)NC3c2cc(F)ccc2Cl)NCC1=O (stereo not shown) [Compound I-1277] | ≤ 0.1
CC(O)(CC#N)c1cc(NC(=O)c2cc(F)cc(C(F)(F)F)c2)c2c(c1)C(=O)NC2c1cc(F)ccc1Cl (stereo not shown) [Compound I-1211] | ≤ 0.1
O=C(Nc1cc(CO)cc2c1C(c1cc(F)ccc1Cl)NC2=O)c1cc(F)cc(C(F)(F)F)c1 (stereo not shown) [Compound I-185] | ≤ 0.1
O=C1NC(c2cc(F)ccc2Cl)c2c(NC(=O)c3cc(F)cc4cc[nH]c34)cccc21 (stereo not shown) [Compound I-646] | ≤ 0.1
O=C(Nc1cccc2c1C(c1cc(F)ccc1Cl)NC2=O)c1cc(F)cc(C(F)(F)F)c1 (stereo not shown) [Compound I-372] | ≤ 0.1
O=C(Nc1cc(O)cc2c1C(c1cc(F)ccc1Cl)NC2=O)c1cc(F)cc(C(F)(F)F)c1 (stereo not shown) [Compound I-363] | ≤ 0.1
O=C(Nc1cc(C#Cc2cccnc2)cc2c1C(c1cc(F)ccc1Cl)NC2=O)c1cc(F)cc(C(F)(F)F)c1 (stereo not shown) [Compound I-1225] | ≤ 0.1
Cn1nccc1Cc1cc(NC(=O)c2cc(F)cc(C(F)(F)F)c2)c2c(c1)C(=O)NC2c1cc(F)ccc1Cl (stereo not shown) [Compound I-1293] | ≤ 0.1
Cn1ccc2c(C(=O)Nc3cc(Br)cc4c3C(c3cc(F)ccc3Cl)NC4=O)ccnc21 (stereo not shown) [Compound I-636] | 10 to 100
O=C(Nc1cc(Br)cc2c1C(c1cc(F)ccc1Cl)NC2=O)c1ccc(C(F)F)cc1 (stereo not shown) [Compound I-572] | 1 to 10
O=C(Nc1cc(-c2cnc(-n3cccn3)nc2)cc2c1C(c1cc(F)ccc1Cl)NC2=O)c1cc(F)cc(C(F)(F)F)c1 (stereo not shown) [Compound I-1483] | ≤ 0.1
Nc1nc(NC(=O)c2cc(F)cc(C(F)(F)F)c2)c2c(n1)C(=O)NC2c1ccccc1Cl (stereo not shown) [Compound I-184] | 0.5 to 1
O=C(Nc1cccc2c1C(c1cc(F)ccc1Cl)NC2=O)c1cc(F)ccc1NC1CCC1 (stereo not shown) [Compound I-872] | 1 to 10

Structure (SMILES) | IC50 [µM]
O=C(COc1ccccc1)Nc1cc(-c2ccc3ncnn3c2)cc2c1C(c1cc(F)ccc1Cl)NC2=O (stereo not shown) [Compound I-1688] | 10 to 100
O=C(Nc1cc(-c2ccc3ncnn3c2)cc2c1[C@@H](c1cc(F)ccc1Cl)NC2=O)c1cc(F)cc(OC(F)(F)F)c1 (stereo in doubt) [Compound I-1117] | 1 to 10
O=C(Nc1cc(CS(=O)(=O)c2ccccc2)cc2c1[C@H](c1cc(F)ccc1Cl)NC2=O)c1cc(F)cc(C(F)(F)F)c1 [Compound I-1591] | ≤ 0.1
CC(C)(COS(C)(=O)=O)c1cc(NC(=O)c2cc(F)cc(C(F)(F)F)c2)c2c(c1)C(=O)NC2c1cc(F)ccc1Cl (stereo not shown) [Compound I-656] | ≤ 0.1
Cc1ncc(-c2cc(NC(=O)c3cc(F)cc(C(F)(F)F)c3)c3c(n2)C(=O)NC3c2cc(F)ccc2Cl)cn1 (stereo not shown) [Compound I-584] | ≤ 0.1
COc1ccc2snc(C(=O)Nc3cccc4c3C(c3ccccc3C)NC4=O)c2c1 (stereo not shown) [Compound I-129] | 10 to 100
Cc1ccc(C(=O)Nc2cc(-c3ccc4ncnn4c3)cc3c2[C@@H](c2cc(F)ccc2Cl)NC3=O)cc1C(F)(F)F (stereo in doubt) [Compound I-1168] | 10 to 100
O=C1NC(O)(c2cccc(F)c2F)c2c(NC(=O)c3csc4ccccc34)ccnc21 (stereo not shown) [Compound I-31] | 10 to 100
O=C(Nc1cc(-c2cnn(-c3nccs3)c2)cc2c1C(c1cc(F)ccc1Cl)NC2=O)c1cc(F)cc(C(F)(F)F)c1 (stereo not shown) [Compound I-1572] | ≤ 0.1
Cn1ccc(Nc2cc(NC(=O)c3cc(F)cc(C(F)(F)F)c3)c3c(c2)C(=O)NC3c2cc(F)ccc2Cl)n1 (stereo not shown) [Compound I-867] | ≤ 0.1
O=C(Nc1cc(-c2cncc(F)c2)nc2c1C(c1cc(F)ccc1Cl)NC2=O)c1cc(F)cc(C(F)(F)F)c1 (stereo not shown) [Compound I-585] | ≤ 0.1
O=C1NC(c2cc(F)ccc2Cl)c2c(NC(=O)c3nccc4ccccc34)cc(Br)cc21 (stereo not shown) [Compound I-638] | 10 to 100
O=C(CCl)Nc1cc(NC(=O)c2cc(F)cc(C(F)(F)F)c2)c2c(c1)C(=O)NC2c1cc(F)ccc1Cl (stereo not shown) [Compound I-407] | ≤ 0.1
C[S@@](=O)(Cc1cc(NC(=O)c2cc(F)cc(C(F)(F)F)c2)c2c(c1)C(=O)N[C@H]2c1cc(F)ccc1Cl)=NC#N (single isomer, unassigned) [Compound I-1565] | ≤ 0.1
Cn1nccc1C(=O)c1cc(NC(=O)c2cc(F)cc(C(F)(F)F)c2)c2c(c1)C(=O)NC2c1cc(F)ccc1Cl (stereo not shown) [Compound I-1380] | ≤ 0.1
Cc1ccccc1[C@H]1NC(=O)c2cc(N)cc(NC(=O)c3nsc4ccccc34)c21 [Compound I-91] | 0.5 to 1
CC(C)(O)c1cc(NC(=O)c2nsc3ccccc23)c2c(c1)C(=O)N[C@@H]2c1cc(F)ccc1Cl [Compound I-191] | 0.5 to 1

Results, then the compound that gave them:

IC50 [µM] | Structure (SMILES)
10 to 100 | Cc1ccccc1C1NCCc2c(Br)ccc(NC(=O)c3cc(F)cc(C(F)(F)F)c3)c21 (stereo not shown) [Compound I-1963]
10 to 100 | O=C1NC(c2cc(F)ccc2Cl)c2c(/C=C/c3ccccc3)cccc21 (stereo not shown) [Compound I-2106]
10 to 100 | O=C1NC(c2cc(F)ccc2Cl)c2c(NC(=O)C3CCCC(O)C3)cc(-c3ccc4ncnn4c3)cc21 (stereo not shown) [Compound I-1723]
10 to 100 | O=C1NC(c2cc(F)ccc2Cl)c2c(NC(=O)C3CCCN(CC(F)(F)F)C3)cc(-c3ccc4ncnn4c3)cc21 (single isomer, unassigned) [Compound I-1964]
1 to 10 | O=C(Nc1cc(-c2cn3ncnc3cc2F)cc2c1[C@@H](c1cc(F)ccc1Cl)NC2=O)c1cc(F)cc(C(F)(F)F)c1 (stereo in doubt) [Compound I-1701]
10 to 100 | O=C1N[C@H](c2cc(F)ccc2Cl)c2c(NC(=O)[C@H]3C[C@@H](O)C[C@@H](C(F)(F)F)C3)cc(Br)cc21 (single isomer, unassigned) [Compound I-2272]
10 to 100 | O=C1N[C@H](c2cc(F)ccc2Cl)c2c(NC(=O)N3C[C@@](O)(CO)c4ccccc43)cccc21 [Compound I-2167]
10 to 100 | O=C(Nc1ccccc1)c1cc(-c2ccc3ncnn3c2)cc2c1C(c1cc(F)ccc1Cl)NC2=O (stereo not shown) [Compound I-1897]
10 to 100 | O=C1NC(c2cc(F)ccc2Cl)c2c(OCc3ccccc3)cc(-c3ccc4ncnn4c3)cc21 (stereo not shown) [Compound I-1955]
0.5 to 1 | CC([C@@H]1C[C@@H](O)CN1C(=O)Nc1cccc2c1C(c1cc(F)ccc1Cl)NC2=O)C(F)(F)F (single isomer, unassigned) [Compound I-2286]
10 to 100 | CN1CCCC[C@H]1C(=O)Nc1cc(-c2ccc3ncnn3c2)cc2c1[C@H](c1cc(F)ccc1Cl)NC2=O (racemic) [Compound I-1948]
1 to 10 | O=C1NC(c2cc(F)ccc2Cl)c2c(NC(=O)N3C[C@@H](C(F)(F)F)[C@@H](O)C3)cc(-c3ccc4ncnn4c3)cc21 (single isomer, unassigned) [Compound I-1978]
10 to 100 | CC#Cc1cc(-c2ccc3ncnn3c2)cc2c1C(c1cc(F)ccc1Cl)NC2=O (stereo not shown) [Compound I-1988]
1 to 10 | [2H]C1([2H])N(C(=O)Nc2cccc3c2[C@@H](c2cc(F)ccc2Cl)NC3=O)c2ccc(F)cc2[C@]1(O)C(F)(F)F (single isomer, unassigned) [Compound I-2592]
10 to 100 | O=C1N[C@@H](c2cc(F)ccc2Cl)c2c(Nc3cn[nH]c3)cc(Br)cc21 [Compound I-2184]
10 to 100 | O=C(Nc1cccc2c1[C@@H](C1CCCCC1)NC2=O)c1cc(F)cc(C(F)(F)F)c1 [Compound I-2053]
10 to 100 | O=C1N[C@H](c2cc(F)ccc2Cl)c2c(NC(=O)N3C[C@H](O)c4cc(F)c(F)cc43)cccc21 (single isomer, unassigned) [Compound I-2292]
1 to 10 | C[C@]1(C(=O)Nc2cc(Br)cc3c2[C@H](c2cc(F)ccc2Cl)NC3=O)CCC[C@@H](C(F)(F)F)C1 (single isomer, unassigned) [Compound I-2263]
≤ 0.1 | N#Cc1nc2cc(-c3cc(NC(=O)c4cc(F)cc(C(F)(F)F)c4)c4c(c3)C(=O)NC4c3cc(F)ccc3Cl)ccn2n1 (stereo not shown) [Compound I-1741]
1 to 10 | NC(=O)C(C(=O)Nc1cc(-c2ccc3ncnn3c2)cc2c1C(c1cc(F)ccc1Cl)NC2=O)c1ccccc1 (stereo not shown) [Compound I-1787]
≤ 0.1 | N#Cc1cc(-c2cc(NC(=O)c3cc(F)cc(C(F)(F)F)c3)c3c(c2)C(=O)NC3c2cc(F)ccc2Cl)cn2ncnc12 (stereo not shown) [Compound I-1822]
10 to 100 | O=C(Nc1cccc2c1C(c1cc(F)ccc1Cl)NC2=O)c1cc(F)cc(B(O)O)c1 (stereo not shown) [Compound I-2087]
0.5 to 1 | N#CC1(n2cc(-c3cc(NC(=O)c4cc(F)cc(C(F)(F)F)c4)c4c(c3)C(=O)N[C@@H]4c3cc(F)ccc3Cl)cn2)CC1 [Compound I-1885]
10 to 100 | O=C1N[C@H](c2cc(F)ccc2Cl)c2c(NC(=O)N3C[C@@H](O)c4cccc(F)c43)cccc21 (single isomer, unassigned) [Compound I-2208]
10 to 100 | O=C(Nc1cccc2c1C(c1cc(F)ccc1Cl)NC2=O)c1csc2c1CCNC2 (stereo not shown) [Compound I-2304]
10 to 100 | O=C1NC(c2cc(F)ccc2Cl)c2c(NC(=O)C34CC5CC(CC(C5)O3)C4)cccc21 (stereo not shown) [Compound I-2303]
1 to 10 | O=C1NC(c2cc(F)ccc2Cl)c2c(NC(=O)C3CCCC(F)C3)cc(-c3ccc4ncnn4c3)cc21 (stereo not shown) [Compound I-1957]
10 to 100 | Cc1cn(-c2cc(NC(=O)N3C[C@](O)(C(F)(F)F)c4cc(F)ccc43)c3c(c2)C(=O)N[C@H]3c2cc(F)ccc2Cl)cn1 (single isomer, unassigned) [Compound I-2639]
1 to 10 | O=C(Nc1cccc2c1C(N1CCC(F)(F)CC1)NC2=O)c1cc(F)cc(C(F)(F)F)c1 (stereo not shown) [Compound I-2077]
